Reference: patent US20220195027A1, “ANTI-ANGIOGENESIS THERAPY FOR THE TREATMENT OF PREVIOUSLY TREATED BREAST CANCER” (Genentech, Inc., priority 2009, published 2022)
Where two headings read alike, the source gives them in different places.

How the values were obtained:
metastatic breast cancer [1] = details: MBC patients with prior anthracycline therapy; cited from earlier work
metastatic breast cancer [2] = details: patients who previously received or were not candidates for anthracyclines; cited from earlier work
[3] = RIBBON 2 Phase III study, safety (adverse events), safety population; type: in vivo; details: in combination with chemotherapy
Source text: Ribbon 2 was an international, multicenter, randomized, double-blind, placebo-controlled clinical study that enrolled 684 patients with metastatic HER2-negative breast cancer who had previously received chemotherapy for their metastatic disease. […] The trial evaluated the addition of either Avastin® (bevacizumab) or placebo to an investigator's choice of chemotherapy. The following chemotherapy regimens were used in the study: taxanes: paclitaxel, protein-bound paclitaxel or docetaxel; gemcitabine; capecitabine; or vinorelbine.

[4] = tested on: previously treated metastatic HER2-negative breast cancer; assay: RIBBON 2 Phase III study, efficacy (PFS, OS) of bevacizumab or placebo plus chemotherapy; type: in vivo, human; details: for Progression free survival, result in words: in combination with chemotherapy, compared to chemotherapy alone
Procedure: The doctors treating the women in the study chose the type of chemotherapy used in combination with Avastin and the chemotherapies were assessed together in the primary endpoint analysis. […] Ribbon 2 was an international, multicenter, randomized, double-blind, placebo-controlled clinical study that enrolled 684 patients with metastatic HER2-negative breast cancer who had previously received chemotherapy for their metastatic disease. See Study Conduct in Table 1 and Patient Characteristics in Table 2. The trial evaluated the addition of either Avastin® (bevacizumab) or placebo to an investigator's choice of chemotherapy. The following chemotherapy regimens were used in the study: taxanes: paclitaxel, protein-bound paclitaxel or docetaxel; gemcitabine; capecitabine; or vinorelbine. Bevacizumab (5 mg/kg Weekly Equivalent) 15 mg/kg IV q 3 weeks; or […] Plus Chemotherapy Taxane • Paclitaxel (e.g., Taxol®): 90 mg/m^2 IV every week for 3 weeks followed by 1 week of rest; or • Paclitaxel (e.g., Taxol®): 175 mg/m^2 IV every 3 weeks; or • Paclitaxel protein-bound particles (Abraxane®): 260 mg/m^2 IV every 3 weeks; or • Docetaxel (Taxotere®): 75-100 mg/m^2 IV every 3 weeks; or Gemcitabine (Gemzar®): 1250 mg/m^2 IV on Days 1 and 8 of each 3-week cycle; or Vinorelbine (Navelbine®): 30 mg/m^2 IV every week; or […] In the study, PFS was defined as the time from randomization to disease progression or death as assessed by the treating physicians in the study (investigator-assessed). Secondary endpoints included objective response rate, duration of response, one-year survival rate, overall survival, PFS assessment by chemotherapy type and safety. […] See Table 3 Primary Efficacy Analysis of PFS and FIG. 2 (Primary Endpoint of PFS) and FIG. 3 (Cohort-Specific Analyses of PFS). PFS results were generally consistent across chemotherapy cohorts with the exception of the small vinorelbine sub-group. Other sub-groups (age, triple negative, etc.) were generally consistent with the primary PFS results. The observed improvement in overall PFS was supported by the secondary efficacy endpoint of ORR. See Table 4 for Interim Efficacy Analysis of OS. […] See, e.g., Table 5, Safety Summary, Safety Population, Table 6 Selected AEs, Safety Population and Table 7 Safety Summary by Chemotherapy Cohort, Safety Population. Bevacizumab was beneficial to patients as a second-line treatment.

Row | Compound | survival (metastatic breast cancer [1]) | time to disease progression (metastatic breast cancer [1]) | survival (metastatic breast cancer [2]) | time to progression (metastatic breast cancer [2]) | Safety signals, result in words [3] | Safety signals, result in words ([3]; listed as Avastin) | PFS stratified analysis HR (95% CI) ([4]; Chemo/BV vs Chemo/PL, ITT population) | PFS median ([4]; ITT population, investigator-assessed) | Progression free survival, result in words [4] | Progression free survival, result in words ([4]; listed as Avastin)
1 | CC(=O)O[C@@]12CO[C@@H]1C[C@H](O)[C@@]1(C)C(=O)[C@H](O)C3=C(C)[C@@H](OC(=O)[C@H](O)[C@@H](NC(=O)OC(C)(C)C)c4ccccc4)C[C@@](O)([C@@H](OC(=O)c4ccccc4)[C@H]21)C3(C)C [docetaxel] | 11.4 months | 4.4 months | 11.5 months | 4.2 months |  |  |  |  |  | 
2 | bevacizumab: recombinant humanized anti-VEGF monoclonal antibody with human IgG1 framework and CDRs from murine antibody A.4.6.1 |  |  |  |  | No new bevacizumab safety signals were observed | no new Avastin safety signals were observed | 0.775 | 7.2 months | increase in progression free survival | increased the time
